Experimental data reported in article PMC3410856, “Structural Analysis of Specific Metal Chelating Inhibitor Binding to the Endonuclease Domain of Influenza pH1N1 (2009) Polymerase” (PLoS Pathogens, 2012).
Like-named read-outs stand apart in the source and are kept apart here.

Tests used:
in vitro = conditions: dog
[1] = tested on: Influenza A virus A/Aichi/2/68 (H3N2); assay: microbe, parasite or virus in culture; type: cell-based; conditions: MDCK cells, MOI 0.05, 48 h, CellTiter-Glo, 95% confidence intervals; for IC50: Influenza A virus, H3N2, read-out: antiviral activity IC50 (reduction of virus induced cytopathic effect)
H1N1 PA-Nter = target: T1, H1N1 PA-Nter (Influenza A virus, UniProt C3W5S0); type: binding
T1 construct: PA-N-ter (residues 1–198) from A/California/04/2009-pH1N1; made in house; host or cells: E. coli BL21(DE3)

influenza polymerase = conditions: read-out: IC50 in vitro cap-dependent transcriptase assay; cited from earlier work

Compound | CC50 (in vitro) [µM] | IC50 [1] [µM] | Tm (apparent melting temperature) (H1N1 PA-Nter) [°C] | Tm (apparent melting temperature) (H1N1 PA-Nter; 5 µM PA-Nter, 500 µM inhibitor, no ligand 53.5) [°C] | antiviral activity IC50 (reduction of virus induced cytopathic effect) [1] | antiviral activity IC50 (reduction of virus induced cytopathic effect) ([1]; listed as DBPA) | IC50 (influenza polymerase) [µM]
O=C(O[C@@H]1Cc2c(O)cc(O)cc2O[C@@H]1c1cc(O)c(O)c(O)c1)c1cc(O)c(O)c(O)c1 [EGCG, [(2R,3R)-5,7-dihydroxy-2-(3,4,5-trihydroxyphenyl)chroman-3-yl]3,4,5-trihydroxybenzoate] | 54.7 ± 4.5 | 1.1 ± 0.4 | – | – | – | – | –
O=C(O)/C(O)=C/C(=O)C1(Cc2ccc(Cl)cc2)CCN(CC2CCCCC2)CC1 [R05-2, 4-[1-cyclohexylmethyl-4-(p-chlorobenzyl)piperidin-4-yl]2,4-dioxobutanoic acid] | > 50 | 15.9 ± 4 | 71 | – | – | – | –
O=C(O)/C(O)=C/C(=O)C1(Cc2ccc(Cl)cc2)CCCN(Cc2ccccc2)C1 (stereo not shown) [R05-3, 4-[N-benzyl-3-(4-chlorobenzyl)piperidin-3-yl]2,4-dioxobutanoic acid] | 79.8 ± 11.5 | 19.9 ± 2 | 69 | – | – | – | –
O=C(O)C(=O)CC(=O)c1ccccc1 [DPBA, 2,4-dioxo-4-phenylbutanoic acid] | > 200 | – | – | 65 | inactive | did not show any inhibitory effect | –
O=C(O)/C(O)=C/C(=O)C1(Cc2ccc(Cl)cc2)CCCN(S(=O)(=O)Cc2ccccc2)C1 (stereo not shown) [R05-1, 4-[3-[(4-chlorophenyl)methyl]-1-(phenylmethylsulpho)-3-piperidinyl]-2-hydroxy-4-oxo-2-butenoic acid] | > 100 | 20.4 ± 3 | 69 | – | – | – | 0.19
